Data published in patent US9018135B2, “Pesticidal compositions” (Syngenta Participations AG, priority 2010, dated 2015).
Like-named read-outs stand apart in the source and are kept apart here.

How the values were obtained:
[1] = system: Nilaparvata lugens (brown plant hopper, BPH); experiment: Activity against Nilaparvata lugens (brown plant hopper, BPH) on sprayed rice plants, % mortality (Abbott); assay type: in vivo; conditions: 168 h
Protocol: Eight replicates (pots with rice plants) were sprayed with respective test solutions. Test solutions contained the formulated test compound and the PGR Moddus® at different ratios. 4 pots were infested with plant hopper nymphs right after application. 7d after application BPH mortality and phytotoxicity were evaluated.

[2] = system: Rhopalosiphum padi (cereal aphid); experiment: Activity against Rhopalosiphum padi (cereal aphid) on sprayed wheat plants, % mortality (Abbott)
Excerpt: Activity Against Rhopalosiphum padi (Cereal Aphid) and Crop Safety
The experiment was divided into two parts, one half of the plants was used for the aphid bioassay the other half was not infested with aphids and kept for plant growth evaluation. One replicate consisted of 4 wheat plants per pot. 5 replicates were infested with a mixed population of cereal aphids 6 days after seeding. 9 days after seeding all wheat plants (10 replicates) were sprayed with respective test solutions. Test solutions contained the formulated test compound (25 ppm), the adjuvant Mero (0.1% v/v), and the plant growth regulator (PGR) CCC (chlormequat-chloride, Cyclocel®) or trinexapac ethyl (Moddus®). 6 and 17d after application aphid mortality and phytotoxicity were evaluated. Efficacy was calculated with the aid of Abbott's formula. Assessment on phytotoxicity was done by counting the number of leaves bent down due to necrosis per pot. Additionally the average plant height per replicate was measured.

SMILES | melting point | other results
CCOC(=O)OC1=C(c2cc(C)ccc2C)C(=O)N(C)C12CCN(OC)CC2 | 96 to 110 °C | 
CCOC(=O)OC1=C(c2cc(C)c(C)cc2Br)C(=O)N(C)C12CCN(OC)CC2 | 158 to 159 °C | 
CCOC(=O)OC1=C(c2c(C)cc(C)cc2C)C(=O)N(CC)C12CCN(OC)CC2 | 101 to 103 °C | 
CCOC(=O)OC1=C(c2c(C)cc(Cl)cc2C)C(=O)N(OC)C12CCN(OC)CC2 | 122 to 125 °C | 
COCON1C(=O)C(c2cc(C)ccc2C)=C(OC(=O)CC(C)(C)C)C12CCN(OC)CC2 | 93 to 95 °C | 
CCOC(=O)OC1=C(c2c(F)ccc(C)c2Cl)C(=O)N(OCOC)C12CCN(OC)CC2 | 116 to 119 °C | 
CON1CCC2(CC1)C(O)=C(c1cc(C)c(C)cc1Br)C(=O)N2C | 191 to 193 °C | 
CON1CCC2(CC1)C(O)=C(c1cc(C)c(C)cc1Cl)C(=O)N2C | 191 to 192 °C | 
COCCON1C(=O)C(c2c(C)cc(Cl)cc2C)=C(O)C12CCN(OC)CC2 | 161 to 164 °C | 
CON1CCC2(CC1)C(O)=C(c1c(C)cc(Cl)cc1C)C(=O)N2OC | 88 to 92 °C | 
COCON1C(=O)C(c2c(C)cc(Cl)cc2C)=C(O)C12CCN(OC)CC2 | 176 to 178 °C | 
CON1CCC2(CC1)C(O)=C(c1c(C)cc(Cl)cc1C)C(=O)N2OC1CCCO1 (centres unmarked) | 137 to 139 °C | 
COCON1C(=O)C(c2c(F)ccc(C)c2Cl)=C(O)C12CCN(OC)CC2 | 155 to 158 °C | 
COCCON1C(=O)C(c2cc(Br)c(C)cc2C)=C(O)C12CCN(OC)CC2 | 63 to 64 °C | 
CON1CCC2(CC1)C(O)=C(c1cc(Br)c(C)cc1C)C(=O)N2OC | 86 to 87 °C | 
COCCON1C(=O)C(c2cc(Br)c(F)cc2C)=C(O)C12CCN(OC)CC2 | 71 to 74 °C | 
CON1CCC2(CC1)C(O)=C(c1c(C)cc(C)cc1C)C(=O)N2OCC1CCCCC1 | 169 to 172 °C | 
CCOC(=O)OC1=C(c2c(C)cc(C)cc2C)C(=O)N(C)C12CCN(OC)CC2 [P1.2, Carbonic acid ethyl ester 8-methoxy-1-methyl-2-oxo-3-(2,4,6-trimethyl-phenyl)-1,8-diaza-spiro[4.5]dec-3-en-4-yl ester] |  | mortality at 12.5 ppm ([1]; 12.5 ppm AI with Moddus, ratio AI:PGR 0.9:1, 7 d after application, read-out: Efficacy (% mortality) against brown plant hopper (Nilaparvata lugens)): 5%; mortality at 12.5 ppm ([1]; 12.5 ppm AI, no PGR, 7 d after application, read-out: Efficacy (% mortality) against brown plant hopper (Nilaparvata lugens)): 65%; mortality at 25 ppm ([1]; 25 ppm AI with Moddus, ratio AI:PGR 1.9:1, 7 d after application, read-out: Efficacy (% mortality) against brown plant hopper (Nilaparvata lugens)): 10%; mortality at 25 ppm ([1]; 25 ppm AI, no PGR, 7 d after application, read-out: Efficacy (% mortality) against brown plant hopper (Nilaparvata lugens)): 37%; mortality at 50 ppm ([1]; 50 ppm AI with Moddus, ratio AI:PGR 1.25:1, 7 d after application, read-out: Efficacy (% mortality) against brown plant hopper (Nilaparvata lugens)): 33%; mortality at 50 ppm ([1]; 50 ppm AI, no PGR, 7 d after application, read-out: Efficacy (% mortality) against brown plant hopper (Nilaparvata lugens)): 62%; mortality at 100 ppm ([1]; 100 ppm AI with Moddus, ratio AI:PGR 7.5:1, 7 d after application, read-out: Efficacy (% mortality) against brown plant hopper (Nilaparvata lugens)): 77%; mortality at 100 ppm ([1]; 100 ppm AI, no PGR, 7 d after application, read-out: Efficacy (% mortality) against brown plant hopper (Nilaparvata lugens)): 80%; mortality at 200 ppm ([1]; 200 ppm AI with Moddus, ratio AI:PGR 15:1, 7 d after application, read-out: Efficacy (% mortality) against brown plant hopper (Nilaparvata lugens)): 87%; mortality at 200 ppm ([1]; 200 ppm AI, no PGR, 7 d after application, Abbott, read-out: Efficacy (% mortality) against brown plant hopper (Nilaparvata lugens)): 90%; Efficacy (% mortality) against cereal aphids (Rhopalosiphum padi), 6 DAA ([2]; test compound 25 ppm + Mero 0.1% v/v, tank mix with PGR Cycocel, ratio AI:PGR 1:20, 6 DAA): 97%; Efficacy (% mortality) against cereal aphids (Rhopalosiphum padi), 17 DAA ([2]; test compound 25 ppm + Mero 0.1% v/v, tank mix with PGR Cycocel, ratio AI:PGR 1:20, 17 DAA): 93%; Efficacy (% mortality) against cereal aphids (Rhopalosiphum padi), 6 DAA ([2]; test compound 25 ppm + Mero 0.1% v/v, tank mix with PGR Moddus, ratio AI:PGR 1:10, 6 DAA): 94%; Efficacy (% mortality) against cereal aphids (Rhopalosiphum padi), 17 DAA ([2]; test compound 25 ppm + Mero 0.1% v/v, tank mix with PGR Moddus, ratio AI:PGR 1:10, 17 DAA): 90%; Efficacy (% mortality) against cereal aphids (Rhopalosiphum padi), 6 DAA ([2]; test compound 25 ppm + adjuvant Mero 0.1% v/v, no PGR, 6 days after application, Abbott): 97%; Efficacy (% mortality) against cereal aphids (Rhopalosiphum padi), 17 DAA ([2]; test compound 25 ppm + adjuvant Mero 0.1% v/v, no PGR, 17 days after application, Abbott): 70%
CCOC(=O)OC1=C(c2c(C)cc(Cl)cc2C)C(=O)N(C)C12CCN(OC)CC2 [P1.29] |  | mortality at 12.5 ppm ([1]; read-out: Efficacy (% mortality) against brown plant hopper (Nilaparvata lugens), 12.5 ppm AI with Moddus, ratio AI:PGR 0.9:1, 7 d after application): 80%; mortality at 12.5 ppm ([1]; read-out: Efficacy (% mortality) against brown plant hopper (Nilaparvata lugens), 12.5 ppm AI, no PGR, 7 d after application): 98%; mortality at 25 ppm ([1]; read-out: Efficacy (% mortality) against brown plant hopper (Nilaparvata lugens), 25 ppm AI with Moddus, ratio AI:PGR 1.9:1, 7 d after application): 97%; mortality at 25 ppm ([1]; read-out: Efficacy (% mortality) against brown plant hopper (Nilaparvata lugens), 25 ppm AI, no PGR, 7 d after application): 98%; mortality at 50 ppm ([1]; read-out: Efficacy (% mortality) against brown plant hopper (Nilaparvata lugens), 50 ppm AI with Moddus, ratio AI:PGR 1.25:1, 7 d after application): 98%; mortality at 50 ppm ([1]; read-out: Efficacy (% mortality) against brown plant hopper (Nilaparvata lugens), 50 ppm AI, no PGR, 7 d after application): 100%; mortality at 100 ppm ([1]; read-out: Efficacy (% mortality) against brown plant hopper (Nilaparvata lugens), 100 ppm AI with Moddus, ratio AI:PGR 7.5:1, 7 d after application): 100%; mortality at 100 ppm ([1]; read-out: Efficacy (% mortality) against brown plant hopper (Nilaparvata lugens), 100 ppm AI, no PGR, 7 d after application): 100%; mortality at 200 ppm ([1]; read-out: Efficacy (% mortality) against brown plant hopper (Nilaparvata lugens), 200 ppm AI with Moddus, ratio AI:PGR 15:1, 7 d after application): 100%; mortality at 200 ppm ([1]; read-out: Efficacy (% mortality) against brown plant hopper (Nilaparvata lugens), 200 ppm AI, no PGR, 7 d after application, Abbott): 100%

The next lines start with results.

melting point | SMILES | other results
149 to 150 °C | CCOC(=O)OC1=C(c2cc(C)c(C)cc2Cl)C(=O)N(C)C12CCN(OC)CC2 | 
91 to 93 °C | COCON1C(=O)C(c2cc(C)ccc2C)=C(OC)C12CCN(OC)CC2 | 
121 to 123 °C | CON1CCC2(CC1)C(O)=C(c1cc(C)ccc1C)C(=O)N2C | 
218 to 221 °C | CCN1C(=O)C(c2c(C)cc(C)cc2C)=C(O)C12CCN(OC)CC2 | 
183 to 186 °C | CON1CCC2(CC1)C(O)=C(c1cc(C)c(C)cc1C)C(=O)N2C | 
182 to 183 °C | CON1CCC2(CC1)C(O)=C(c1cc(Br)c(C)cc1C)C(=O)N2C | 
223 to 225 °C | CON1CCC2(CC1)C(O)=C(c1c(C)cc(C)cc1C)C(=O)N2CC1CC1 | 
128 °C (dec.) | COCON1C(=O)C(c2c(C)cc(-c3ccc(Cl)cc3)cc2C)=C(O)C12CCN(OC)CC2 | 
135 to 137 °C | CON1CCC2(CC1)C(O)=C(c1c(C)cc(C)cc1C)C(=O)N2OCCOC1CCCCO1 (centres unmarked) | 
64 to 67 °C | COCON1C(=O)C(c2cc(Br)c(F)cc2C)=C(O)C12CCN(OC)CC2 | 
